Test systems include OVCAR-4; SN12C; LOX IMVI; K562; CAKI-1; ACHN; U-251; NCI-H226; SF-268; NCI-H460; SK-OV-3; SF-295; TK-10; NCI-H522; 786-0; A498; BT-549; NCI/ADR-RES; MCF7.
Common to all, as to assay: inhibition of tumour cell growth, NCI panel, 48 h

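Briefly, cells in 96-well plates were exposed to five compound concentrations for 48 h, and endpoints were estimated by linear interpolation. GI50 = concentration required for 50% inhibition of growth.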 Active and inactive are the calls of the source. Cut-off read from the data, not from the text of the source: active = GI50 up to about 1.1 µM and inactive = higher. A value given as a limit tells only on which side of the number the result lay.

As for `CCC(C)C(N)C(=O)NC(CC(N)=O)C(=O)NC(CC(C)C)C(=O)NC(CCCCN)C(=O)NC(C)C(=O)NC(CC(C)C)C(=O)NC(C)C(=O)NC(C)C(=O)NC(CC(C)C)C(=O)NC(C)C(=O)NC(CCCCN)C(=O)NC(CCCCN)C(=O)NC(C(=O)NC(CC(C)C)C(N)=O)C(C)CC` (stereo unspecified), the GI50 with OVCAR-4 was 15.3 µM (inactive); with SN12C, 13.6 µM (inactive); in the test on LOX IMVI, 18.3 µM (inactive); in the test on K562 it was 14.7 µM (inactive); in the test on CAKI-1, 8.3 µM (inactive); in the test with ACHN it was 14 µM (inactive). In addition, the GI50 in the test on U-251 is 16.4 µM (inactive); with NCI-H226, 14.5 µM (inactive); with SF-268, 6.47 µM (inactive); with NCI-H460, 9.82 µM (inactive); in the test on SK-OV-3, 18.7 µM (inactive); in the test on SF-295, 19.8 µM (inactive). Moreover, the GI50 in the test on TK-10 was 14.2 µM (inactive); in the test with NCI-H522, 16.7 µM (inactive); in the test with 786-0 it was 6.56 µM (inactive); in the test on A498, 17.9 µM (inactive).

For the molecule `COc1ccc(-c2cc(-c3cc(C)ccc3O)nc(O)n2)cc1`, the GI50 in the test with OVCAR-4 is > 100 µM (inactive); in the test with SN12C, > 100 µM (inactive); in the test on LOX IMVI, > 100 µM (inactive); with K562, > 100 µM (inactive); in the test with CAKI-1, > 100 µM (inactive); in the test on ACHN it was 42.8 µM (inactive). In addition, the GI50 in the test on U-251 is 30.7 µM (inactive); in the test with NCI-H226 it was > 100 µM (inactive); in the test with SF-268, 80.9 µM (inactive); in the test with NCI-H460, > 100 µM (inactive); in the test on SK-OV-3 it was 44.4 µM (inactive); in the test on SF-295, 41 µM (inactive). For the same molecule, the GI50 in the test on TK-10 was 40.8 µM (inactive); with NCI-H522, 24.6 µM (inactive); with 786-0 it was 62.5 µM (inactive); with A498 it was 74.6 µM (inactive).

As for `CCCCNC(=S)Nc1nc(C(=O)NNC(=O)c2ccccc2)cs1`, the GI50 in the test on OVCAR-4 is 9.29 µM (inactive); in the test on SN12C it was 17.3 µM (inactive); in the test with LOX IMVI, 10.1 µM (inactive); with K562, 44.5 µM (inactive); in the test with CAKI-1, 20.9 µM (inactive); in the test on ACHN it was 15.9 µM (inactive). The GI50 is 11.8 µM (inactive) in the test with U-251; 21.3 µM (inactive) in the test on NCI-H226; 25.9 µM (inactive) in the test on SF-268; 18.1 µM (inactive) in the test with BT-549; 17.5 µM (inactive) in the test on SK-OV-3; 15.2 µM (inactive) with SF-295. The GI50 was 19.6 µM (inactive) in the test with TK-10; 19.3 µM (inactive) in the test on NCI-H522; 16.7 µM (inactive) in the test with 786-0; 30.3 µM (inactive) in the test with A498; 16.9 µM (inactive) with NCI/ADR-RES.

On to `O=C(CSc1nnc(Cc2ccccc2)o1)Nc1ccccc1Cl`, for which the GI50 in the test on OVCAR-4, in the test on SN12C, in the test with LOX IMVI, with K562, in the test on CAKI-1 and with ACHN was > 100 µM (inactive) in each case. Besides, the GI50 in the test on U-251, with NCI-H226, in the test with SF-268, in the test on NCI-H460, with SK-OV-3 and with SF-295 was > 100 µM (inactive) throughout. Further, the GI50 in the test with TK-10, in the test with NCI-H522, with 786-0 and in the test with A498 was > 100 µM (inactive) each time.

Regarding `NC(=S)NNC(=O)/C(=C/c1ccc(/C=C(\NC(=O)c2ccccc2)C(=O)NNC(N)=S)cc1)NC(=O)c1ccccc1`, the GI50 in the test on OVCAR-4 was 97.5 µM (inactive); with SN12C it was > 79.6 µM (inactive); in the test with LOX IMVI, 34.1 µM (inactive); in the test with K562, 19.1 µM (inactive); in the test with CAKI-1, > 100 µM (inactive); in the test on ACHN it was > 100 µM (inactive). Moreover, the GI50 with U-251 was 85.7 µM (inactive); with NCI-H226, > 100 µM (inactive); in the test with SF-268, > 100 µM (inactive); in the test with NCI-H460, > 100 µM (inactive); with SK-OV-3, > 100 µM (inactive); in the test with SF-295, > 100 µM (inactive). Besides, the GI50 was > 100 µM (inactive) in the test with TK-10, 25.4 µM (inactive) with NCI-H522, > 100 µM (inactive) with 786-0 and > 100 µM (inactive) in the test with A498.

As for `Cc1cccc2c1Oc1cc(Cl)ccc1C2NC(=O)CCN1CCN(CCO)CC1` (stereo unspecified), the GI50 was 16 µM (inactive) in the test on OVCAR-4; 15.2 µM (inactive) in the test with MCF7; 15 µM (inactive) with SN12C; 2.75 µM (inactive) with LOX IMVI; 18.2 µM (inactive) in the test on K562; 15.1 µM (inactive) with U-251. For the same molecule, the GI50 in the test on SF-268 was 23.3 µM (inactive); with BT-549, 15.1 µM (inactive); in the test with NCI-H460, 19.1 µM (inactive); with SK-OV-3, 25.9 µM (inactive); in the test with SF-295 it was 18.3 µM (inactive); with TK-10, > 10 µM (inactive). Moreover, the GI50 was 11.1 µM (inactive) in the test with NCI-H522, 13.6 µM (inactive) in the test on 786-0 and 15.8 µM (inactive) in the test with NCI/ADR-RES.

With `Cc1cn(C2CCC(/C=N\O)O2)c(=O)[nH]c1=O` (stereo unspecified), the GI50 in the test with OVCAR-4, with MCF7, in the test with SN12C, with LOX IMVI, with K562 and in the test on CAKI-1 was > 100 µM (inactive) throughout. Besides, the GI50 in the test on ACHN, in the test on U-251, in the test with NCI-H226, with BT-549, with NCI-H460 and with SF-295 was > 100 µM (inactive) in each case. For the same molecule, the GI50 with 786-0, in the test on A498 and in the test on NCI/ADR-RES was > 100 µM (inactive) in each case.

For `COC(=O)C1(C(=O)OC)N=C(C)OC1C(C)C` (stereo unspecified), the GI50 in the test on OVCAR-4, in the test on MCF7, in the test with SN12C, with LOX IMVI, in the test with K562 and with CAKI-1 was > 100 µM (inactive) each time. Further, the GI50 with ACHN, in the test on U-251, in the test with NCI-H226, with BT-549, with NCI-H460 and with SK-OV-3 was > 100 µM (inactive) in each case. Moreover, the GI50 with SF-295, in the test with TK-10, in the test with 786-0, in the test with A498 and in the test with NCI/ADR-RES was > 100 µM (inactive) throughout.

Regarding `CC(C)CCC[C@@H](C)C1CCC2[C@@H]3CC=C4C[C@@H](C(=O)NCCN(C)C)CC[C@]4(C)C3CC[C@@]21C` (stereo partly specified), the GI50 with OVCAR-4 was 30.4 µM (inactive); with SN12C, 19.4 µM (inactive); with LOX IMVI, 51.4 µM (inactive); with K562, 33 µM (inactive); in the test with CAKI-1, 22.3 µM (inactive); in the test with ACHN it was 35.8 µM (inactive). Also, the GI50 in the test on U-251 is 30 µM (inactive); in the test with NCI-H226 it was 19.9 µM (inactive); with SF-268, 36 µM (inactive); in the test on NCI-H460, 32.9 µM (inactive); with SK-OV-3 it was > 100 µM (inactive); with SF-295, 44.4 µM (inactive). Also, the GI50 in the test with TK-10 was 23.7 µM (inactive); in the test on NCI-H522, 41 µM (inactive); in the test with 786-0, 17.3 µM (inactive); in the test on A498, 32.5 µM (inactive).

With `CC(=O)OC(C)(C)CCC(=O)[C@](C)(O)[C@H]1[C@H](O)C[C@@]2(C)[C@@H]3CCc4c(cc(OC5OC(CO)C(O)C(O)C5O)c(O)c4C)C3(C)C(=O)C[C@]12C` (stereo partly specified), the GI50 with OVCAR-4, in the test on MCF7, with SN12C, in the test with LOX IMVI, with K562 and in the test on CAKI-1 was > 100 µM (inactive) each time. The GI50 in the test on ACHN, in the test with U-251, in the test on NCI-H226, with SF-268, with BT-549 and in the test with NCI-H460 was > 100 µM (inactive) throughout. In addition, the GI50 in the test with SK-OV-3, with SF-295, in the test with TK-10, with NCI-H522, with 786-0 and in the test on A498 was > 100 µM (inactive) throughout. Moreover, the GI50 with NCI/ADR-RES was > 100 µM (inactive).

On to `C=CCOc1cc2c(cc1C(C)c1ccc(OC)cc1)OCO2` (stereo unspecified), for which the GI50 was > 100 µM (inactive) in the test on OVCAR-4; 0.453 µM (active) in the test with MCF7; 0.849 µM (active) in the test on SN12C; 0.598 µM (active) in the test with LOX IMVI; 0.39 µM (active) in the test on K562; 0.628 µM (active) in the test with CAKI-1. For the same molecule, the GI50 is 0.612 µM (active) with ACHN; 0.447 µM (active) in the test with U-251; 0.813 µM (active) with NCI-H226; 4.88 µM (inactive) with SF-268; 0.409 µM (active) in the test with NCI-H460; 0.311 µM (active) in the test on SK-OV-3. The GI50 in the test with SF-295 is 0.299 µM (active); with TK-10, 7.41 µM (inactive); in the test on NCI-H522, 0.205 µM (active); in the test with 786-0 it was 0.655 µM (active); in the test on A498, 2.08 µM (inactive).

With `C[C@]12C=CC(=O)C=C1CC[C@H]1[C@@H]3C[C@@H](O)[C@](O)(C(=O)CO)[C@@]3(C)C[C@H](O)[C@@]12F` [TRIAMCINOLONE], the GI50 with OVCAR-4, with SN12C, with LOX IMVI, in the test with K562, with CAKI-1 and with ACHN was > 100 µM (inactive) throughout. Further, the GI50 with U-251, with NCI-H226, with SF-268, in the test on NCI-H460, in the test with SK-OV-3 and in the test on SF-295 was > 100 µM (inactive) each time. Moreover, the GI50 in the test with TK-10, in the test on NCI-H522, with 786-0 and in the test on A498 was > 100 µM (inactive) each time.
